Reference: patent publication US20240246967A1, “AXL COMPOUNDS” (ARCUS BIOSCIENCES, INC., priority 2021, published 2024)

Biological target: T1, human MER (Homo sapiens, UniProt Q12866)
T1 construct: purchased Invitrogen
T1 sequence (Q12866 21-999): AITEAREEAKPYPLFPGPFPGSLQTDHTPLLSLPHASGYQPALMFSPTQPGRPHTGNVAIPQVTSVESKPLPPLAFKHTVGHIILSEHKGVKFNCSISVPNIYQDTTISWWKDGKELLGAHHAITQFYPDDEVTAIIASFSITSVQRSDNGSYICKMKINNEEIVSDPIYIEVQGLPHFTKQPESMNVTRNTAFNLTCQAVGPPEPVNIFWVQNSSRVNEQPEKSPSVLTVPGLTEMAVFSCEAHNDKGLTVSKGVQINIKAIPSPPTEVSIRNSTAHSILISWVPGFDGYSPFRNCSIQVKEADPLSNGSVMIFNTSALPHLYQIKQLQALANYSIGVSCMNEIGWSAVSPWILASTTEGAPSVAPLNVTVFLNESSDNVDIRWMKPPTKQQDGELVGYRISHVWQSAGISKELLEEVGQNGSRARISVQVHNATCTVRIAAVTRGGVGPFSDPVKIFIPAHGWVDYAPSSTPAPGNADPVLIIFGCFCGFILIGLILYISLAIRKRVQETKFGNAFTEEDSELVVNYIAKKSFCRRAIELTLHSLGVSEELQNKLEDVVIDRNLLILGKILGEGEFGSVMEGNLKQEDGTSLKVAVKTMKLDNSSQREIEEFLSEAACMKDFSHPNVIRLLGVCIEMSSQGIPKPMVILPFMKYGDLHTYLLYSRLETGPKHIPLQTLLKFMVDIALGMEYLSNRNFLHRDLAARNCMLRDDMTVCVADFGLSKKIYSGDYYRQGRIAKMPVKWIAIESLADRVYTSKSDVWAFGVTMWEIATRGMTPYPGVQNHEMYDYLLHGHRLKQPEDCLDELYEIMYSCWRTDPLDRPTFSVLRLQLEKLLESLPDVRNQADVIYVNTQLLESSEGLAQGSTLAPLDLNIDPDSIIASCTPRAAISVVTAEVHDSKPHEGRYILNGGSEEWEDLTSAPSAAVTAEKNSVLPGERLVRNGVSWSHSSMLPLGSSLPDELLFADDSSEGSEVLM
Assay: HTRF KinEASE-TK biochemical potency assay, MER
Conditions: 1 nM MER, 700 μM ATP, 800 nM TK Substrate-biotin
Description: Purified recombinant human AXL, TYRO3 and MER proteins were purchased from Invitrogen™. 10 nM AXL, 2 nM TYRO3 or MER were incubated with varying concentrations of compounds in 50 mM HEPES, pH 7.4, 10 mM MgCl2, 0.01% BSA, 1 mM DTT and 2% DMSO in a total volume of 20 μl in a 384-well microplate (Corning™ #3640) at RT for 1 h. The AXL, TYRO3 and MER enzymatic reaction was initiated by transferring 10 μl of enzyme and compound mixture into 10 μl of 1.6 μM TK Substrate-biotin (HTRF® KinEASE-TK kit, Cisbio) and 1400 μM ATP pre-incubated in 50 mM HEPES, pH 7.4, 10 mM MgCl2, 0.01% BSA, 1 mM DTT in a 384-well microplate (Corning™ #3640) at RT, giving the final reaction conditions: 5 nM AXL, 1 nM TYRO3 or MER, 800 nM TK Substrate-biotin and 700 μM ATP in 50 mM HEPES, pH 7.4, 10 mM MgCl2, 0.01% BSA, 1 mM DTT and 1% DMSO with varying concentrations of compounds. Following 2 h incubation at RT, the AXL, TYRO3 and MER enzymatic reaction was stopped by transfer of 10 μl of reaction into 10 μl of detection mix (400 nM Streptavidin-XL665, 200-fold dilution TK Antibody-Cryptate and detection buffer, HTRF® KinEASE-TK kit, Cisbio) in a white 384-well microplate (Perkin Elmer, OptiPlate 384). After 1 h incubation at RT, the plate was put into a plate reader (Evision) to read at 665/620 nm (acceptor/donor) for HTRF. The value of the DMSO blank (MIN inhibition=100% activity) was used as a negative control. The positive control was established by adding 5 μl of enzyme and DMSO mixture into 10 μl of detection mix followed by addition of 5 μl of TK Substrate-biotin and ATP mixture (MAX inhibition=0% activity). To calculate the percent activity, Equation 1 was used. Ratio 665/620 is the value at a given compound concentration: […]

Question: `CC1(N2CCC[C@H]2CO)CCc2ccc(-c3cnc4[nH]nc(-c5ccc(S(=O)(=O)C6CC6)cc5)c4c3)cc2CC1` (stereo partly drawn) [Example 4, [(2S)-1-(2-{3-[4-(Cyclopropanesulfonyl)phenyl]-1H-pyrazolo[3,4-b]pyridin-5-yl}-7-methyl-6,7,8,9-tetrahydro-5H-benzo[7]annulen-7-yl)pyrrolidin-2-yl]methanol] was tested. Which IC50 did it give?
Answer: 100 to 1000 nM

Question: How did the IC50 turn out when `C[C@H]1CCCN1C1(C)CCc2ccc(-c3cnc4[nH]nc(-c5ccc(S(=O)(=O)C6CC6)cc5)c4c3)cc2CC1` (stereo partly drawn) [Example 5, (2S)-1-(2-{3-[4-(Cyclopropanesulfonyl)phenyl]-1H-pyrazolo[3,4-b]pyridin-5-yl}-7-methyl-6,7,8,9-tetrahydro-5H-benzo[7]annulen-7-yl)-2-methylpyrrolidine] was run?
Answer: 100 to 1000 nM

Question: With `CCC1(N2CCC[C@H]2C)CCc2ccc(-c3cnc4[nH]nc(-c5ccc(S(=O)(=O)C6CC6)cc5)c4c3)cc2CC1` (stereo partly drawn) [Example 6, (2R)-1-(2-{3-[4-(Cyclopropanesulfonyl)phenyl]-1H-pyrazolo[3,4-b]pyridin-5-yl}-7-ethyl-6,7,8,9-tetrahydro-5H-benzo[7]annulen-7-yl)-2-methylpyrrolidine] as the molecule, how does the IC50 read?
Answer: > 1000 nM

Question: `CC1(N2CCC2)CCc2ccc(-c3cnc4[nH]nc(-c5ccc(S(=O)(=O)C6CC6)cc5)c4c3)cc2CC1` (centres unmarked) [Example 7, 1-(2-{3-[4-(Cyclopropanesulfonyl)phenyl]-1H-pyrazolo[3,4-b]pyridin-5-yl}-7-methyl-6,7,8,9-tetrahydro-5H-benzo[7]annulen-7-yl)azetidine] was tested. Which IC50 did it give?
Answer: 100 to 1000 nM

Question: With `C[C@@H]1CCCN1C1(C)CCc2ccc(-c3cnc4[nH]nc(-c5ccc(S(=O)(=O)C(F)(F)F)cc5)c4c3)cc2CC1` (stereo partly drawn) [Example 8, (2R)-2-Methyl-1-{7-methyl-2-[3-(4-trifluoromethanesulfonylphenyl)-1H-pyrazolo[3,4-b]pyridin-5-yl]-6,7,8,9-tetrahydro-5H-benzo[7]annulen-7-yl}pyrrolidine] as the molecule, how does the IC50 read?
Answer: > 1000 nM

Question: `CC(C)(O)c1ccc(-c2n[nH]c3ncc(-c4ccc5c(c4)CCC(N4CCCC4)CC5)cc23)cn1` (centres unmarked) [Example 9, 2-(5-{5-[7-(Pyrrolidin-1-yl)-6,7,8,9-tetrahydro-5H-benzo[7]annulen-2-yl]-1H-pyrazolo[3,4-b]pyridin-3-yl}pyridin-2-yl)propan-2-ol] was tested. Which IC50 did it give?
Answer: 100 to 1000 nM

Question: For `CC(C)(O)c1ccc(-c2n[nH]c3ncc(-c4ccc5c(c4)CCN(C4CCCC4)CC5)cc23)cn1` [Example 10, 2-{5-[5-(3-Cyclopentyl-2,3,4,5-tetrahydro-1H-3-benzazepin-7-yl)-1H-pyrazolo[3,4-b]pyridin-3-yl]pyridin-2-yl}propan-2-ol], which IC50 is on record?
Answer: 100 to 1000 nM

Question: With `CC(C)(O)c1ccc(-c2n[nH]c3ncc(-c4ccc5c(c4)CCC(N4CCCC4)CC5)cc23)cc1Cl` (centres unmarked) [Example 11, 2-(2-Chloro-4-{5-[7-(pyrrolidin-1-yl)-6,7,8,9-tetrahydro-5H-benzo[7]annulen-2-yl]-1H-pyrazolo[3,4-b]pyridin-3-yl}phenyl)propan-2-ol] as the molecule, how does the IC50 read?
Answer: 100 to 1000 nM

Question: Which IC50 does the source give for `CC(C)(O)c1ccc(-c2n[nH]c3ncc(-c4ccc5c(c4)CCN(C4CCCC4)CC5)cc23)cc1Cl` [Example 12, 2-{2-Chloro-4-[5-(3-cyclopentyl-2,3,4,5-tetrahydro-1H-3-benzazepin-7-yl)-1H-pyrazolo[3,4-b]pyridin-3-yl]phenyl}propan-2-ol] here?
Answer: > 1000 nM

Question: With `CC(C)(O)c1ccc(-c2n[nH]c3ncc(-c4ccc5c(c4)CCN(C4CCCC4)CC5)cc23)cc1C(F)(F)F` [Example 16, 2-{4-[5-(3-Cyclopentyl-2,3,4,5-tetrahydro-1H-3-benzazepin-7-yl)-1H-pyrazolo[3,4-b]pyridin-3-yl]-2-(trifluoromethyl)phenyl}propan-2-ol] as the molecule, how does the IC50 read?
Answer: 100 to 1000 nM

Question: For `CC(C)(O)c1ccc(-c2n[nH]c3ncc(-c4ccc5c(c4)CCN(C4CCCC4)CC5)cc23)c(F)c1` [Example 17, 2-{4-[5-(3-Cyclopentyl-2,3,4,5-tetrahydro-1H-3-benzazepin-7-yl)-1H-pyrazolo[3,4-b]pyridin-3-yl]-3-fluorophenyl}propan-2-ol], which IC50 is on record?
Answer: > 1000 nM

Question: `C[C@@H]1CCCN1C1CCc2ccc(-c3cnc4[nH]nc(-c5ccc(C(C)(C)O)c(C(F)(F)F)c5)c4c3)cc2CC1` (stereo partly drawn) [Example 20, 2-[4-(5-{7-[(2R)-2-Methylpyrrolidin-1-yl]-6,7,8,9-tetrahydro-5H-benzo[7]annulen-2-yl}-1H-pyrazolo[3,4-b]pyridin-3-yl)-2-(trifluoromethyl)phenyl]propan-2-ol] was tested. Which IC50 did it give?
Answer: 100 to 1000 nM

Question: `CC(C)(O)c1ccc(-c2n[nH]c3ncc(-c4ccc5c(c4)CCC(N4CCC[C@@H]4CO)CC5)cc23)cc1Cl` (stereo partly drawn) [Example 21, 2-[2-Chloro-4-(5-{7-[(2R)-2-(hydroxymethyl)pyrrolidin-1-yl]-6,7,8,9-tetrahydro-5H-benzo[7]annulen-2-yl}-1H-pyrazolo[3,4-b]pyridin-3-yl)phenyl]propan-2-ol] was tested. Which IC50 did it give?
Answer: 100 to 1000 nM

Question: How did the IC50 turn out when `C[C@@H]1CCCN1C1(C)CCc2ccc(-c3cnc4[nH]nc(-c5ccc(C(C)(C)O)nc5)c4c3)cc2CC1` (stereo partly drawn) [Example 22, 2-[5-(5-{7-Methyl-7-[(2R)-2-methylpyrrolidin-1-yl]-6,7,8,9-tetrahydro-5H-benzo[7]annulen-2-yl}-1H-pyrazolo[3,4-b]pyridin-3-yl)pyridin-2-yl]propan-2-ol] was run?
Answer: 100 to 1000 nM

Question: For `CS(=O)(=O)N1CCC(c2n[nH]c3ncc(-c4ccc5c(c4)CCC(N4CCCC4)CC5)cc23)CC1` (centres unmarked) [Example 23, 1-Methanesulfonyl-4-{5-[7-(pyrrolidin-1-yl)-6,7,8,9-tetrahydro-5H-benzo[7]annulen-2-yl]-1H-pyrazolo[3,4-b]pyridin-3-yl}piperidine], which IC50 is on record?
Answer: 100 to 1000 nM

Question: For `C[C@H]1CCCN1C1CCc2ccc(-c3cnc4[nH]nc(-c5ccc(S(=O)(=O)C6CC6)cc5)c4c3)cc2CC1` (stereo partly drawn) [Example 24, 3-(4-(Cyclopropylsulfonyl)phenyl)-5-(7-((S)-2-methylpyrrolidin-1-yl)-6,7,8,9-tetrahydro-5H-benzo[7]annulen-2-yl)-1H-pyrazolo[3,4-b]pyridine], which IC50 is on record?
Answer: 100 to 1000 nM

Question: For `C[C@@H]1CCCN1C1(C)CCc2ccc(-c3cnc4[nH]nc(-c5ccc(S(=O)(=O)C6CC6)c(F)c5)c4c3)cc2CC1` (stereo partly drawn) [Example 25, (2R)-1-(2-{3-[4-(Cyclopropanesulfonyl)-3-fluorophenyl]-1H-pyrazolo[3,4-b]pyridin-5-yl}-7-methyl-6,7,8,9-tetrahydro-5H-benzo[7]annulen-7-yl)-2-methylpyrrolidine], which IC50 is on record?
Answer: 100 to 1000 nM

Question: With `O=S(=O)(c1ccc(-c2n[nH]c3ncc(-c4ccc5c(c4)CCN(C4CCOCC4)CC5)cc23)cc1)C1CC1` [Example 26, 7-{3-[4-(Cyclopropanesulfonyl)phenyl]-1H-pyrazolo[3,4-b]pyridin-5-yl}-3-(oxan-4-yl)-2,3,4,5-tetrahydro-1H-3-benzazepine] as the molecule, how does the IC50 read?
Answer: > 1000 nM

Question: How did the IC50 turn out when `O=S(=O)(c1ccc(-c2n[nH]c3ncc(-c4ccc5c(c4)CCN(CC4CCOC4)CC5)cc23)cc1)C1CC1` (centres unmarked) [Example 27, 7-{3-[4-(Cyclopropanesulfonyl)phenyl]-1H-pyrazolo[3,4-b]pyridin-5-yl}-3-[(oxolan-3-yl)methyl]-2,3,4,5-tetrahydro-1H-3-benzazepine] was run?
Answer: > 1000 nM

Question: How did the IC50 turn out when `CS(=O)(=O)c1ccc(-c2n[nH]c3ncc(-c4ccc5c(c4)CCN(C4CCCC4)CC5)cc23)cc1` [Example 30, 3-Cyclopentyl-7-(3-(4-(methylsulfonyl)phenyl)-1H-pyrazolo[3,4-b]pyridin-5-yl)-2,3,4,5-tetrahydro-1H-benzo[d]azepine] was run?
Answer: 100 to 1000 nM
